Results reported in ChEMBL document CHEMBL1201862, “PubChem BioAssay data set” (2004).
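Dose response: 5 concentrations. Exposure: 48 h. Format: 96-well plates. Endpoint: linear interpolation; highest concentration if not reached. At the GI50, growth is halved.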 Active and inactive are the calls of the source. Rule as the data show it: active = GI50 up to about 1.1 µM and inactive = higher.

Columns and labels:
Assay in all cases: NCI tumour cell line growth inhibition, 48 h
IGROV-1 = test system: IGROV-1
NCI-H522 = test system: NCI-H522
NCI-H23 = test system: NCI-H23
A549 = test system: A549
HOP-92 = test system: HOP-92
HL-60 = test system: HL-60
SK-MEL-2 = test system: SK-MEL-2
RPMI-8226 = test system: RPMI-8226
A498 = test system: A498
SNB-19 = test system: SNB-19
786-0 = test system: 786-0
NCI-H460 = test system: NCI-H460
UO-31 = test system: UO-31
U-251 = test system: U-251
CCRF-CEM = test system: CCRF-CEM

Measured: GI50

O=C(/C=C/c1cc(Cl)cc(Cl)c1O)c1cccc(O)c1
inactive: IGROV-1 42.2 µM | NCI-H522 > 100 µM | NCI-H23 52 µM | A549 > 100 µM | HOP-92 27.8 µM | HL-60 29.1 µM | SK-MEL-2 26.2 µM | RPMI-8226 49.3 µM | A498 > 100 µM | SNB-19 41.9 µM | 786-0 70.5 µM | NCI-H460 > 100 µM | UO-31 74.1 µM | U-251 25.5 µM | CCRF-CEM 29.9 µM

c1ccc(SC23C4C5C6C4C2C6C53)nc1 (stereo not given)
inactive: IGROV-1 > 100 µM | NCI-H522 > 100 µM | NCI-H23 > 100 µM | A549 > 100 µM | HOP-92 > 100 µM | HL-60 11.5 µM | SK-MEL-2 > 100 µM | RPMI-8226 > 39.5 µM | A498 > 63.7 µM | SNB-19 > 100 µM | 786-0 > 100 µM | NCI-H460 > 100 µM | UO-31 35.6 µM | U-251 > 100 µM | CCRF-CEM > 100 µM

O=C1Nc2ccccc2C12CCNC2Cc1ccccc1 (stereo not given)
inactive: IGROV-1 > 100 µM | NCI-H23 > 100 µM | A549 > 100 µM | HOP-92 76.6 µM | HL-60 > 100 µM | SK-MEL-2 > 100 µM | RPMI-8226 > 100 µM | A498 > 100 µM | SNB-19 56.6 µM | 786-0 > 100 µM | NCI-H460 > 100 µM | U-251 > 100 µM | CCRF-CEM > 100 µM

COc1ccc(-c2nc3c(nc2-c2ccc(OC)cc2)C(N)=NS(=O)(=O)N3)cc1
inactive: IGROV-1 > 100 µM | NCI-H522 > 100 µM | NCI-H23 > 100 µM | A549 > 100 µM | HL-60 > 100 µM | SK-MEL-2 > 100 µM | RPMI-8226 > 100 µM | A498 > 100 µM | SNB-19 > 100 µM | 786-0 > 100 µM | UO-31 > 100 µM | U-251 > 100 µM | CCRF-CEM > 100 µM

CC1(C)CC(=O)C2=C(C1)S/C(=C1/SC3=C(S1)C(=O)CC(C)(C)C3)S2
inactive: IGROV-1 > 251 µM | NCI-H522 > 251 µM | NCI-H23 > 251 µM | A549 > 251 µM | HOP-92 > 251 µM | HL-60 > 251 µM | SK-MEL-2 > 251 µM | RPMI-8226 > 251 µM | A498 > 251 µM | SNB-19 > 251 µM | 786-0 > 251 µM | NCI-H460 > 251 µM | UO-31 > 251 µM | U-251 > 251 µM | CCRF-CEM > 251 µM

COc1ccc(/C(=N\NC(=N)N)C(c2ccc(OC)cc2)C2OC(=O)c3ccccc32)cc1 (stereo not given)
inactive: IGROV-1 > 100 µM | NCI-H522 > 100 µM | NCI-H23 > 100 µM | A549 > 100 µM | HOP-92 > 100 µM | HL-60 > 100 µM | RPMI-8226 > 100 µM | SNB-19 > 100 µM | 786-0 > 100 µM | NCI-H460 > 100 µM | UO-31 > 100 µM | U-251 > 100 µM | CCRF-CEM > 100 µM

COc1cc(C=O)c(-c2cc3c(cc2C2(C)OCCS2)OCO3)c(OC)c1OC (stereo not given)
inactive: IGROV-1 28.2 µM | NCI-H522 6.08 µM | NCI-H23 21.9 µM | A549 8.71 µM | HOP-92 14.8 µM | HL-60 8.07 µM | SK-MEL-2 11.4 µM | RPMI-8226 11.4 µM | A498 7.85 µM | SNB-19 30.2 µM | 786-0 7.4 µM | NCI-H460 18.9 µM | UO-31 14.1 µM | U-251 15.5 µM | CCRF-CEM 7.59 µM

COC(=O)/C=C/c1cc(OC)c(OC)c(OC)c1
inactive: IGROV-1 > 100 µM | NCI-H522 46.5 µM | NCI-H23 > 100 µM | A549 > 100 µM | HOP-92 > 100 µM | HL-60 > 100 µM | SK-MEL-2 > 100 µM | SNB-19 > 100 µM | 786-0 > 100 µM | NCI-H460 > 100 µM | UO-31 69.3 µM | CCRF-CEM > 100 µM

O=C(COc1ccc2c(=O)cc(-c3ccc(Cl)cc3)oc2c1)N1CCN(c2ccccc2)CC1
inactive: IGROV-1 > 100 µM | NCI-H23 > 100 µM | A549 48.9 µM | HOP-92 64.1 µM | HL-60 59.3 µM | SK-MEL-2 > 100 µM | RPMI-8226 > 100 µM | A498 5.69 µM | SNB-19 > 100 µM | 786-0 > 100 µM | NCI-H460 > 100 µM | UO-31 1.73 µM | U-251 > 100 µM

Clc1cccc(-c2nnc(-c3nn(-c4ccccc4)c4nc5ccccc5nc34)o2)c1
inactive: IGROV-1 > 100 µM | NCI-H522 > 100 µM | NCI-H23 > 100 µM | A549 > 100 µM | HL-60 > 100 µM | SK-MEL-2 > 100 µM | RPMI-8226 > 100 µM | SNB-19 > 100 µM | 786-0 > 100 µM | NCI-H460 > 100 µM | UO-31 > 100 µM | U-251 > 100 µM | CCRF-CEM > 100 µM

Nc1nc2ncn(CC(O)CO)c2c(=S)[nH]1 (stereo not given)
inactive: IGROV-1 > 100 µM | NCI-H522 > 100 µM | A549 > 100 µM | HOP-92 > 100 µM | HL-60 > 100 µM | SK-MEL-2 > 100 µM | RPMI-8226 > 100 µM | A498 > 100 µM | SNB-19 > 100 µM | 786-0 > 100 µM | NCI-H460 > 100 µM | UO-31 > 100 µM | U-251 > 100 µM | CCRF-CEM > 100 µM

C1=CC(N(c2ccccc2)C2C=CCCC2)CCC1 (stereo not given)
inactive: IGROV-1 > 100 µM | NCI-H522 67 µM | NCI-H23 > 100 µM | A549 > 100 µM | HOP-92 35.8 µM | HL-60 69.8 µM | RPMI-8226 32.4 µM | A498 > 100 µM | 786-0 > 100 µM | NCI-H460 > 100 µM | U-251 > 100 µM | CCRF-CEM > 100 µM

Cc1ccc(C2(O)CC(c3ccc([N+](=O)[O-])o3)=NN2C(=O)COc2ccc(Cl)cc2)cc1 (stereo not given)
inactive: IGROV-1 11.4 µM | NCI-H522 9.04 µM | NCI-H23 5.2 µM | A549 7.29 µM | HOP-92 7.93 µM | HL-60 1.75 µM | SK-MEL-2 4.44 µM | RPMI-8226 2.24 µM | A498 4.98 µM | SNB-19 6.62 µM | 786-0 4.45 µM | NCI-H460 6.3 µM | UO-31 5.5 µM | U-251 2.28 µM

CC1(C)C(=O)N(c2ccccc2)C(=O)N1c1nc2ccccc2[nH]1
inactive: IGROV-1 > 100 µM | NCI-H522 54.7 µM | NCI-H23 > 100 µM | A549 > 100 µM | HOP-92 > 100 µM | HL-60 63.2 µM | SK-MEL-2 > 100 µM | RPMI-8226 33.7 µM | A498 > 100 µM | SNB-19 > 100 µM | 786-0 > 100 µM | NCI-H460 71.9 µM | UO-31 > 100 µM | CCRF-CEM 21.4 µM

O=C1c2ccccc2C(=O)c2nc(-c3ccccc3)c(-c3ccccc3)nc21
inactive: NCI-H522 14.4 µM | NCI-H23 17.6 µM | A549 22.8 µM | HOP-92 20.3 µM | SK-MEL-2 10.8 µM | RPMI-8226 > 100 µM | A498 28.2 µM | SNB-19 24.9 µM | 786-0 > 61.7 µM | NCI-H460 5.83 µM | UO-31 > 100 µM | U-251 > 67 µM | CCRF-CEM > 100 µM

O=C1N[C@@H](O)[C@@H]2ON=C(c3ccccc3)[C@H]12
inactive: IGROV-1 > 100 µM | NCI-H23 > 100 µM | A549 > 100 µM | HOP-92 > 100 µM | HL-60 > 100 µM | SK-MEL-2 > 100 µM | RPMI-8226 > 100 µM | A498 > 100 µM | SNB-19 > 100 µM | 786-0 > 100 µM | NCI-H460 > 100 µM | UO-31 > 100 µM | U-251 > 100 µM | CCRF-CEM > 100 µM

CN(C)C(=S)Nc1nnc(Nc2ccccc2)s1
inactive: IGROV-1 > 100 µM | NCI-H522 9.51 µM | NCI-H23 > 100 µM | A549 > 100 µM | HOP-92 > 100 µM | HL-60 > 100 µM | SK-MEL-2 > 100 µM | A498 > 100 µM | SNB-19 > 100 µM | 786-0 > 100 µM | NCI-H460 > 100 µM | UO-31 > 100 µM | U-251 > 100 µM | CCRF-CEM > 100 µM

O=C(CC(=O)c1cccc2ccccc12)C(=O)NC1C2CC3CC(C2)CC1C3 (stereo not given)
inactive: IGROV-1 > 100 µM | NCI-H522 > 100 µM | NCI-H23 > 100 µM | A549 > 100 µM | HOP-92 34.4 µM | HL-60 77.1 µM | RPMI-8226 > 100 µM | A498 > 100 µM | SNB-19 > 100 µM | 786-0 > 100 µM | NCI-H460 > 100 µM | UO-31 > 100 µM | U-251 > 100 µM | CCRF-CEM > 100 µM

COc1ccc(C2S/C(=C\c3ccc([N+](=O)[O-])cc3)C(=O)N2NC(=O)Cc2ccccc2)cc1 (stereo not given)
inactive: IGROV-1 > 100 µM | NCI-H522 > 100 µM | NCI-H23 > 100 µM | A549 > 100 µM | HOP-92 > 100 µM | HL-60 92.9 µM | SK-MEL-2 > 100 µM | RPMI-8226 > 100 µM | A498 > 100 µM | 786-0 > 100 µM | NCI-H460 > 100 µM | UO-31 > 100 µM | U-251 79.3 µM | CCRF-CEM 82.8 µM
